Values joined by “and” are separate entries in the source; they are usually repeats but may differ in a detail not shown here. Identical values can stand only once.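 Grown in 96-well plates, cells were treated for 48 hours with each compound at five concentrations. Insufficient inhibition: endpoint recorded as highest concentration tested. Abbreviation: GI50, concentration required for 50% inhibition of growth. Definition used: TGI = concentration required for complete inhibition of growth.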
Legend:
Experiment in all cases: DTP human tumour cell line panel, 48 h
NCI-H460 lung = test system: NCI-H460 lung
SN12C renal = test system: SN12C renal
MALME-3M melanoma = test system: MALME-3M melanoma
A549 NSCLC = test system: A549 NSCLC
MCF7 breast = test system: MCF7 breast
HL-60(TB) leukemia = test system: HL-60(TB) leukemia
NCI/ADR-RES ovarian = test system: NCI/ADR-RES ovarian
SNB-75 CNS = test system: SNB-75 CNS
UO-31 renal = test system: UO-31 renal
MDA-MB-435 = test system: MDA-MB-435
MDA-N = test system: MDA-N
M14 melanoma = test system: M14 melanoma

SMILES	TGI (NCI-H460 lung) [µM]	TGI (SN12C renal) [µM]	TGI (MALME-3M melanoma) [µM]	TGI (A549 NSCLC) [µM]	TGI (MCF7 breast)	TGI (HL-60(TB) leukemia)	TGI (NCI/ADR-RES ovarian) [µM]	TGI (SNB-75 CNS) [µM]	TGI (UO-31 renal) [µM]	TGI (MDA-MB-435) [µM]	TGI (MDA-N) [µM]	TGI (M14 melanoma) [µM]	GI50 (NCI-H460 lung)	GI50 (SN12C renal)	GI50 (SNB-75 CNS)
Nc1c(O)c2c(c(O)c1Cl)C(=O)C=CC2=O	4.64	13.7	0.894	5.68	3.51 µM	6.13 µM	> 32.6	12.6	24.5	3.16	3.24	6.08	–	–	–
COC(=O)/N=[N+](\[O-])C(c1ccc(Cl)cc1)c1ccc(Cl)cc1	> 100	> 100	> 100	> 100	> 100 µM	97.3 µM	> 100	> 100	51.2	> 100	> 100	> 100	–	–	–
CCOC(=O)CCN1C(=O)c2ccc(NC(=O)C(=O)O)cc2S1(=O)=O	> 100	> 100	> 100	> 100	> 100 µM	> 100 µM	> 100	> 100	> 100	> 100	> 100	> 100	–	–	–
Cc1cccc(/C=N/NC(=S)NC2CCCCC2)n1	> 67.8	> 100	> 86.4	> 88.9	> 100 µM	> 44.5 µM	> 67.1	> 100	> 89.5	> 100	> 93.1	61.6	–	–	–
COC(=O)C1C(O)C(C)C(O)C(C)/C=C\C=C(C)C(=O)Nc2c(C)c(OC(C)=O)c3c(c2O)C(=O)C(C)=C2OCOC(=C23)C(C)=CC(C)(O)C(O)C(C)C1O (stereo not given)	> 100	> 100	> 100	> 100	51.1 µM and > 100 µM	42.2 µM and > 100 µM	> 100	> 100	> 100	> 100	> 100	> 100	20.5 µM and > 100 µM	49 µM and > 100 µM	35.3 µM and 5.07 µM
Nc1ccc2c(c1)N(C(=O)CCCC(=O)N1CC(CCl)c3ccc(N)cc31)CC2CCl (stereo not given)	> 50	9.67	0.451	> 50	12.9 µM	0.907 µM	42.7	2.87	2.74	3.17	3.82	4.7	–	–	–
COc1ccc(/C=C/C(=O)c2cccc(C(=O)/C=C/c3ccc(OC)c(OC)c3)n2)cc1OC	> 100	30.1	70.5	> 100	> 100 µM	92.2 µM	> 86.8	> 100	43.4	> 100	34.8	> 79.8	–	–	–
CCOC(=O)NC(Nc1cccc(F)c1)(C(F)(F)F)C(F)(F)F	> 100	> 100	> 100	> 100	> 100 µM	> 100 µM	> 100	> 100	> 100	> 100	> 100	> 100	–	–	–
COP(=N[Si](C)(C)C)(OC)OC	> 100	> 100	> 100	> 100	> 100 µM	> 100 µM	> 100	> 100	> 100	> 100	> 100	> 100	–	–	–
COc1ccc(-c2c(C#N)c(N)n(C3OCC(O)C(O)C3O)c(=S)c2C#N)cc1 (stereo not given)	> 100	> 100	> 100	> 100	> 100 µM	> 100 µM	> 100	> 100	> 100	> 100	> 100	> 100	–	–	–
CC(C)/C(Cl)=N/OC(NC(=O)Nc1ccc(Cl)c(Cl)c1)(C(F)(F)F)C(F)(F)F	56.4	33.9	4.55	72.4	> 50.2 µM	6.39 µM	31.7	31.3	31.3	33.8	32.3	18.3	–	–	–
